Earlier results as cited in patent publication US20240293347A1, “COMPOSITION AND METHODS OF TREATMENT USING TRANSDERMAL HORMONE SUPPLEMENTATION” (Xygenyx Inc., priority 2023, published 2024).

Experiments:
[1] = used as penetration enhancer for transdermal drugs
[2] = in the human body

| Compound | increase of drug uptake via the transdermal route (factor) [1] | biological half-life [2] |
| --- | --- | --- |
| CC(C)[C@@H]1CC[C@@H](C)C[C@H]1O [Menthol] | ≥ 10 | – |
| CC12CCC(CC1)C(C)(C)O2 [eucalyptol, 1,8-epoxy-p-menthane] | more than 10 | – |
| HGH: hormone comprising a peptide chain that is synthesized in the pituitary gland | – | 10-20 minutes |
